Drawing on patent US20100077512A1 (priority 2006, published 2010), this text covers melting point and mortality for three molecules.

Series [1] concerns Mediterranean fruitfly (Ceratitis capitata). Conditions: 2500 ppm, eggs sprayed, 6 days.
The subject of series [2] is tobacco budworm (Heliothis virescens). Conditions: 2500 ppm, eggs sprayed, 6 days. The method, then:
15 to 25 eggs were placed into microtiterplates filled with diet. The eggs were sprayed with 10 μl of the test solution, the plates were sealed with pierced foils and kept at 27-29° C. and 75-85% humidity under fluorescent light for 6 days. Mortality was assessed on the basis of the agility and of comparative feeding of the hatched larvae. Tests were replicated 2 times.

As to `O=S(=O)(NCc1ccnnc1)c1cc(Br)cs1`, the melting point was 120 to 122 °C.

Turning to `O=S(=O)(NCc1ccnnc1)c1ccc(-c2ccc(Cl)cc2)nc1` [Example 60], the mortality entry in series [1] was “at least 75%”.

`N#Cc1ccc(-c2ccc(S(=O)(=O)NCc3ccnnc3)cc2)cc1` [Example 11]: the mortality result in series [2] is on record as “at least 75%”.

As usually defined, the melting point is the temperature of the solid-liquid transition.
